Each structure is given as a SMILES string.

For assay [1], the target named is T1, PdeA (Caulobacter vibrioides, UniProt A0A0H3CDG5).
T1 sequence (A0A0H3CDG5 1-555): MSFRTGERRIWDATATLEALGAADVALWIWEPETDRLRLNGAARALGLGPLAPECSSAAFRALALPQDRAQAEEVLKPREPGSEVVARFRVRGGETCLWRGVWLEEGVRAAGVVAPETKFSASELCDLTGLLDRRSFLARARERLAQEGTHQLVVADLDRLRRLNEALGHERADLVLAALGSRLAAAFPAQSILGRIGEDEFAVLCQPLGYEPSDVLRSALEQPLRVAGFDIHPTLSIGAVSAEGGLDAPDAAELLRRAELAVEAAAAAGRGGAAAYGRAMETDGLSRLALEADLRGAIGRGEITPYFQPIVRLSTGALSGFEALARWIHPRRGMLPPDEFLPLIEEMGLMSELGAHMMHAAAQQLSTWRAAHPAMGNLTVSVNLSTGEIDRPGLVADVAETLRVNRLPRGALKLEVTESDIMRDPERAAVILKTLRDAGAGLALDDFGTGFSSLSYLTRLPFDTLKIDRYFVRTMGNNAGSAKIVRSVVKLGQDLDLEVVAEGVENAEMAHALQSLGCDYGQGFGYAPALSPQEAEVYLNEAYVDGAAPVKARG
As to the kind of experiment: purified phosphodiesterase turnover of c-di-GMP read with cdGreen2. Type of assay: biochemical.

The target of assay [2] is T1, PdeA. As to the kind of experiment: activation of purified PdeA phosphodiesterase, c-di-GMP turnover read with cdGreen2, GTP dose-response. It is filed as biochemical.

Turning to `Nc1nc2c(ncn2[C@@H]2O[C@@H]3COP(=O)(O)O[C@H]4[C@@H](O)[C@H](n5cnc6c(=O)[nH]c(N)nc65)O[C@@H]4COP(=O)(O)O[C@H]3[C@H]2O)c(=O)[nH]1` [c-di-GMP], the “purified phosphodiesterase turnover of c-di-GMP read with cdGreen2” value at PdeA [1] is recorded as “purified cdGreen2 also accurately monitored the breakdown of c-di-GMP by all PDEs tested”.

At PdeA [2], `Nc1nc2c(ncn2[C@@H]2O[C@H](COP(=O)(O)OP(=O)(O)OP(=O)(O)O)[C@@H](O)[C@H]2O)c(=O)[nH]1` [GTP] gave a dissociation constant (Kd) of around 3.4 µM.

Usually Kd stands for the equilibrium constant for the complex coming apart.

Source of the values: PMC11082216, “A genetically encoded biosensor to monitor dynamic changes of c-di-GMP with high temporal resolution” (Nature Communications, 2024).
